Values of other authors as cited in US9694080B2, “Polymer release system” (EGALET LTD., priority 2001, dated 2017).

Row | dose linearity range (literature) [mg] | absorption in the large intestine, share of the total absorption (timed-release capsules, Nolte et al) | SMILES | beta effect relative to S(−) (β1 and β2) | α effect relative to S(−) (α-adrenoceptor)
1 | – | – | COc1ccccc1OCCNC[C@@H](O)COc1cccc2[nH]c3ccccc3c12 [R(+)] | 1/100 | the same α effect
2 | 6.25 to 50 | approximately 10% | COc1ccccc1OCCNCC(O)COc1cccc2[nH]c3ccccc3c12 (stereo not shown) [Carvedilol] | – | –
